A word on the IC50: it is the concentration at which inhibition is half-maximal. The EC50 is the midpoint of the concentration-response curve.

The test system of test [1] is A375 cells. Nature of the test: Growth inhibition assay (CellTiter-Glo), A375. Conditions: Homo sapiens. Format: cell-based. The procedure: (§1) Growth inhibition assay: Cells were plated into a 96-well plate at a density of 3000 cells per well and allowed to adhere overnight. Compounds were dissolved in DMSO, diluted 3-fold to create an 8-point titration and added to cells. After a 72-hour incubation, cell viability was examined using CellTiter-Glo® (Promega).
(§2) In order to determine the effects of Formula I on proliferation, a growth assay was established using melanoma cells (A375 and COLO829) and colorectal carcinoma cells (COLO205, HT-29) which each express the BRAFV600E mutation. To show selectivity over wild-type BRAF, several BRAF wild-type cell lines (K562, NOMO-1, MV-4-11 and ML-2) were also examined in the growth assay. The growth assay implemented the Promega CellTiter-Glo Luminescent Cell viability assay, which gives a luminescent readout that is proportional to the amount of ATP present in a cell sample. As ATP levels directly correlate with the number of viable cells, the luminescent signal can be used to determine the potency of Formula I to block the proliferation of the cell lines of interest.
(§3) 1. 3,000 cells were plated in each well for cell lines A375, COLO205, COLO829, HT-29, and SK-MEL-3. 25,000 cells were plated in each well for cell lines K562, ML-2, MV-4-11, and
(§4) NOMO-1 of a 96-well tissue-culture-treated plate (Corning #3610) in a 50 μL volume. Cells were incubated overnight at 37° C.
(§5) 2. Each test compound was plated as an 8-point titration, using 1:3 dilutions in DMSO. The maximum concentration was about 5 mM. Dilute DMSO and test compound of Formula I 1:250 in growth media.
(§6) 3. 50 μL of the diluted compound was transferred into 50 μL cells, for a 500-fold final compound dilution (maximum concentration is typically 10 μM and DMSO concentration is 0.2%). The cells were incubated with DMSO/compound for 3 days at 37° C. in 5% CO2.
(§7) 4. Cell Titer-Glo Luminescent Assay Reagent was brought to room temperature and reconstituted as directed in the product manual. The cell cultures were also brought to room temperature for about 20-30 minutes. […] Luminescence was measured on a Tecan Safire plate reader. […]
A general note: In ATP-based viability assays light output follows the ATP content of the culture.

For test [2], the system named is pERK in COLO829 cells (BRAF^V600E, heterozygous). Nature of the test: Phospho-ERK AlphaScreen assay, pERK inhibition in COLO829. The settings on record: Homo sapiens, COLO-829, 1 h, read-out: pERK inhibition IC50 COLO829. It counts as cell-based. As to the method:
(§8) Phospho-ERK AlphaScreen® assay: The degree of ERK phosphorylation was determined using an AlphaScreen® assay where an increase in ERK1/2 phosphorylation at Thr202/Tyr204 brought the donor and acceptor AlphaScreen® beads into close proximity, generating a signal for quantification. To determine the effects of compound treatment on phosphorylation of ERK1/2, cells were plated in a 96-well plate and treated with an 8-point titration of compound for one hour at 37° C. before lysis. To detect pERK, cell lysates were incubated with streptavidin-coated AlphaScreen® donor beads, anti-mouse IgG AlphaScreen® acceptor beads, a biotinylated anti-ERK1/2 rabbit antibody, and a mouse antibody that recognizes ERK1/2 only when it is phosphorylated on Thr202 and Tyr204. The biotinylated ERK1/2 antibody binds to both the streptavidin-coated AlphaScreen® donor beads and to ERK1/2 (regardless of its phosphorylation state), and the phospho-ERK1/2 antibody binds to the acceptor beads and to ERK1/2 that is phosphorylated at Thr202/Tyr204. An increase in ERK1/2 phosphorylation at Thr202/Tyr204 brings the donor and acceptor AlphaScreen® beads into close proximity, generating a signal that can be quantified on an EnVision reader (Perkin Elmer).
(§9) Using AlphaScreen® technology, the ability of Formula I to affect the phosphorylation of ERK and MEK in the cells was measured quantitatively. Following treatment with compound, the cells were lysed, and a sample of the lysate was transferred to an assay plate. The lysate was mixed with antibodies directed against total ERK/MEK, antibodies that recognize specific phosphorylation sites on ERK/MEK, AlphaScreen® anti-mouse IgG Acceptor beads, and Streptavidin Donor beads. Upon excitation of the donor beads with laser light at 680 nm, singlet oxygen was produced. This singlet oxygen was rapidly quenched, unless the AlphaScreen® Acceptor beads were in close proximity, in which case a proximity signal can be measured at 580 nm. In the presence of phosphorylated ERK/MEK, there is a very strong proximity signal.
(§10) 1. One day before the assay, 50,000 cells were plated in each well of a 96-well tissue-culture-treated plate (Corning #3610) in a 50 μL volume. Cells were incubated at 37° C. overnight.
(§11) 2. Compounds were diluted in DMSO to 500× final concentration. Each compound was plated as an 8-point titration, using 1:3 dilutions in DMSO. The maximum concentration was about 5 mM.
(§12) 3. 1 μl of compound was added to each well of a 96-well polypropylene plate (Corning #3363). For A375, COLO829, SK-MEL-3, HCT116, and HT-29, the high control was DMSO, and the low control was 10 μM PLX4720 (CAS No. 918505-84-7). For B9 and IPC-298, the high control was 3.33 μM PLX4720, and the low control was DMSO. 4. 249 μL growth media was added to compounds, diluting them 250-fold. 5. […] The compound was incubated with the cells at 37° C. for one hour. 6. The media was aspirated, and the cells were lysed in 50 μL of ice-cold 1× Cell Lysis buffer. The plates were incubated on ice for 5 minutes to allow complete lysis of the cells. 7. A mixture of biotinylated donor antibody, acceptor antibody, and anti-mouse IgG AlphaScreen® acceptor beads in 1× AlphaLISA immunoassay buffer was prepared. 8. 5 μL of lysate was transferred to a 384-well assay plate (Perkin Elmer #6005359). 5 μL of the antibody and acceptor bead mixture was added. The plates were spinned.

For test [3], the system named is COLO205 cells. Nature of the test: Growth inhibition assay (CellTiter-Glo), COLO205. Format: cell-based. The settings on record: Homo sapiens. As to the method: Cells were incubated overnight at 37° C.
2. […] The maximum concentration was about 5 mM.

Test [4] relates to COLO829 cells. Nature of the test: Growth inhibition assay (CellTiter-Glo), COLO829. Format: cell-based. The settings on record: Homo sapiens. As to the method: as §1, §2, §3, §4, §5, §6, §7
Test [5] deals with pERK in B9 cells (HRAS^Q61L). Nature of the test: Phospho-ERK AlphaScreen assay, pERK activation in B9. It counts as cell-based, murine. The settings on record: Mus musculus. As to the method: as §8, §9, §10, §11, §12
In general terms: In Alpha technology, singlet oxygen from a donor bead excites a nearby acceptor bead.

[6] abbreviates: B9, HRAS^Q61L, concentration increasing pERK to 50% compared to positive control 10 μM PLX4720, read-out: pERK activation EC50 B9.
Setting [7] is: read-out: pERK activation Mean EC50, B9.
Where [8] appears, read: A-375, 72-hour incubation, read-out: In vitro growth inhibition IC50, A375.
[9] abbreviates: COLO829, BRAF^V600E heterozygous, one hour treatment.
The mark [10] stands for this setting: COLO 205, 72-hour incubation, read-out: In vitro growth inhibition IC50, COLO205.
Setting [11] is: COLO-829, 72-hour incubation, read-out: In vitro growth inhibition IC50, COLO829.

Molecules are shown by their SMILES. Where two headings read alike, the source gives them in different places.

On to `O=C(c1c(F)ccc(NS(=O)(=O)N2CC[C@@H](F)C2)c1F)c1c[nH]c2ncc(-c3cnc(C4CC4)nc3)cc12` [Formula I, (3R)—N-[3-[5-(2-cyclopropylpyrimidin-5-yl)-1H-pyrrolo[2,3-b]pyridine-3-carbonyl]-2,4-difluorophenyl]-3-fluoropyrrolidine-1-sulfonamide], for which the IC50 in test [1] (A-375, 72 h, Table 4, melanoma, BRAF V600E, RAS WT, 3 days, read-out: Growth IC50 A375) came to 50 nM; in test [2] it was 18 nM; in test [3] (COLO 205, 72 h, Table 4, colorectal adenocarcinoma, BRAF V600E/WT, RAS WT, 3 days, read-out: Growth IC50 Colo205), 10 nM; in test [4] (COLO-829, 72 h, Table 4, melanoma, BRAF V600E/WT, RAS WT, 3 days, read-out: Growth IC50 Colo829), 100 nM. In addition, the values for the EC50 in test [5] (setting [6]) and in test [5] (setting [7]) were greater than 200000 nM and no less than 10000 nM, respectively.

`CCN(C)S(=O)(=O)Nc1ccc(F)c(C(=O)c2c[nH]c3ncc(-c4cnc(C5CC5)nc4)cc23)c1F` [Formula II, 5-(2-cyclopropylpyrimidin-5-yl)-3-[3-[[ethyl(methyl)sulfamoyl]amino]-2,6-difluoro-benzoyl]-1H-pyrrolo[2,3-b]pyridine]: the IC50 in test [1] (setting [8]) worked out at 170 nM; in test [2] (setting [9]) it was 2.1 nM; in test [3] (setting [10]), 160 nM; in test [4] (setting [11]), 530 nM. Besides, the EC50 in test [5] (setting [6]) is greater than 200000 nM.

As for `CCCS(=O)(=O)Nc1ccc(F)c(C(=O)c2c[nH]c3ncc(-c4ccc(Cl)cc4)cc23)c1F` [Vemurafenib, vemurafenib, reference compound], the IC50 in test [1] (setting [8]) was 330 nM; in test [2] (setting [9]), 41 nM; in test [3] (setting [10]), 250 nM; in test [4] (setting [11]), 690 nM. Moreover, the EC50 in test [5] (setting [6]) turned out to be 360 nM; in test [5] (setting [7]) it was 560 nM.
